The source made the active and inactive calls. The rule behind the calls is not given here.
The compounds below were run on NCI-H295R (assay: Antiproliferative activity against human NCI-H295R cells at 10 nM after 24 hrs by Cell titer blue assay). Conditions: not given.
Assay type: functional

Row | SMILES | growth inhibition (GI)
1 | N#Cc1ccc(OCc2cn(Cc3ccccc3)nn2)cc1 | inactive

Same assay, conditions: read-out: GI

Row | SMILES | inhibition of growth at 0.01 µM [%]
2 | N#Cc1ccc(OCc2cn(C(c3ccc(C#N)cc3)c3ccc(C#N)cc3)nn2)cc1 | 76

The compounds below were run against T1, Aromatase (Homo sapiens, UniProt P11511) (assay: Inhibition of aromatase using 7-methoxy-4-trifluoromethyl coumarin as substrate after 30 mins by fluorescence-based colorimetric analysis). Conditions: not given.
T1 sequence (P11511 whole entry): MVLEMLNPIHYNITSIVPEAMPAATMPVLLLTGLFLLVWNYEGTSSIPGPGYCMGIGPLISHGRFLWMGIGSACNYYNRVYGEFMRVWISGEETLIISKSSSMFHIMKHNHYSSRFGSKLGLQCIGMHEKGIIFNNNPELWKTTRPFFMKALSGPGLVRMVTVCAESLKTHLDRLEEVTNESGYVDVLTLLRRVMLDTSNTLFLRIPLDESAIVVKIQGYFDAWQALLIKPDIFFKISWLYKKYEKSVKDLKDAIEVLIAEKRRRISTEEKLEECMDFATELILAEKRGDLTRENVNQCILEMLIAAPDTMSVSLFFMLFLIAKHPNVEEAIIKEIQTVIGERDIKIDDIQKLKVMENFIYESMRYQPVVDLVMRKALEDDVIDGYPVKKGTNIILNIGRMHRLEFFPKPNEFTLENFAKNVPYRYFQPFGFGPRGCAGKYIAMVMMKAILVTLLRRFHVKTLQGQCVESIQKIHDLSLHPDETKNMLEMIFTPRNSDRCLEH

Row | IC50 [µM] | SMILES
3 | 5.04 | Clc1ccc(OCc2cn(Cc3ccccc3)nn2)cc1
4 | 19.4 | CCCCCCCc1cn(C(c2ccccc2)c2ccccc2)nn1
5 | 4.17 | Cc1ccc(OCc2cn(Cc3ccc(C#N)cc3)nn2)cc1
6 | 5.62 | N#Cc1ccc(Cn2cc(COc3ccc([N+](=O)[O-])cc3)nn2)cc1
7 | 7.88 | CCCCCCCCCCc1cn(Cc2ccc(C#N)cc2)nn1
8 | 26.8 | Cc1ccc(OCc2cn(C(c3ccccc3)c3ccccc3)nn2)cc1
9 | 19.3 | N#Cc1ccc(C(c2ccc(C#N)cc2)n2cc(C3CCCCC3)nn2)cc1
10 | 16.3 | c1ccc(Cn2nccn2)cc1
11 | 13.7 | c1ccc(C(c2ccccc2)n2cc(C3CCCCC3)nn2)cc1
12 | 10.6 | c1ccc(Cn2cc(COc3ccccc3)nn2)cc1
13 | 11 | Cc1ccc(OCc2cn(C(c3ccc(C#N)cc3)c3ccc(C#N)cc3)nn2)cc1
14 | 12.2 | COc1ccc(OCc2cn(C(c3ccc(C#N)cc3)c3ccc(C#N)cc3)nn2)cc1
15 | 7.73 | N#Cc1ccc(C(c2ccc(C#N)cc2)n2cc(COc3ccc([N+](=O)[O-])cc3)nn2)cc1
16 | 9.77 | c1ccc(Cn2cc(-c3ccccc3)nn2)cc1
17 | 3.07 | CCCCCCCc1cn(Cc2ccc(C#N)cc2)nn1
18 | 6.4 | CCCCCCCCCCc1cn(Cc2ccccc2)nn1
19 | 13.4 | Clc1ccc(OCc2cn(C(c3ccccc3)c3ccccc3)nn2)cc1
20 | 13.5 | CCCCCCCCCCc1cn(C(c2ccccc2)c2ccccc2)nn1
21 | 3.38 | N#Cc1ccc(Cn2cc(-c3ccccc3)nn2)cc1
22 | 5.26 | CCCCCCc1cn(Cc2ccc(C#N)cc2)nn1
23 | 14.8 | CCCCCCc1cn(C(c2ccccc2)c2ccccc2)nn1

Row | IC50 [µM] | SMILES
24 | 9.53 | CCCCCCCc1cn(Cc2ccccc2)nn1
25 | 2.27 | Cc1ccc(OCc2cn(Cc3ccccc3)nn2)cc1
26 | 15.5 | c1ccc(-c2ccc(OCc3cn(C(c4ccccc4)c4ccccc4)nn3)cc2)cc1
27 | 11.9 | c1ccc(Cn2ccnn2)cc1
28 | 10.7 | N#Cc1ccc(Cn2cc(C3CCCCC3)nn2)cc1
29 | 11.6 | N#Cc1ccc(Cn2cc(COc3ccc(-c4ccccc4)cc3)nn2)cc1
30 | 4.64 | N#Cc1ccc(OCc2cn(C(c3ccc(C#N)cc3)c3ccc(C#N)cc3)nn2)cc1
31 | 11 | N#Cc1ccc(C(c2ccc(C#N)cc2)n2cc(COc3ccccc3)nn2)cc1
32 | 16.4 | N#Cc1ccc(OCc2cn(C(c3ccccc3)c3ccccc3)nn2)cc1
33 | 12.6 | CCCc1cn(Cc2ccccc2)nn1
34 | 1.1 | c1ccc(C(c2ccccc2)n2cncn2)cc1
35 | 16.1 | N#Cc1ccc(C(c2ccc(C#N)cc2)n2cc(COc3ccc(Cl)cc3)nn2)cc1
36 | 0.15 | N#Cc1ccc(Cn2cncn2)cc1
37 | 11 | CCCc1cn(C(c2ccccc2)c2ccccc2)nn1
38 | 11.6 | O=[N+]([O-])c1ccc(OCc2cn(C(c3ccccc3)c3ccccc3)nn2)cc1
39 | 6.09 | N#Cc1ccc(Cn2cc(COc3ccccc3)nn2)cc1
40 | 4.58 | c1ccc(C(c2ccccc2)n2ccnn2)cc1
41 | 3.91 | N#Cc1ccc(Cn2cc(COc3ccc(Cl)cc3)nn2)cc1
42 | 12 | c1ccc(C(c2ccccc2)n2nccn2)cc1
43 | 1.36 | N#Cc1ccc(OCc2cn(Cc3ccccc3)nn2)cc1
44 | 13.3 | N#Cc1ccc(C(c2ccc(C#N)cc2)n2cc(COc3ccc(-c4ccccc4)cc3)nn2)cc1

Row | IC50 [µM] | SMILES
45 | 0.1 | N#Cc1ccc(Cn2ccnn2)cc1
46 | 4.11 | c1ccc(Cn2cncn2)cc1
47 | 7.47 | CCCCCCc1cn(Cc2ccccc2)nn1
48 | 10.7 | c1ccc(Cn2cc(COc3ccc(-c4ccccc4)cc3)nn2)cc1
49 | 10.3 | N#Cc1ccc(C(c2ccc(C#N)cc2)n2cc(-c3ccccc3)nn2)cc1
50 | 10.6 | CCCCCCCc1cn(C(c2ccc(C#N)cc2)c2ccc(C#N)cc2)nn1
51 | 4.37 | CCCc1cn(Cc2ccc(C#N)cc2)nn1
52 | 15.2 | COc1ccc(OCc2cn(C(c3ccccc3)c3ccccc3)nn2)cc1
53 | 2.34 | COc1ccc(OCc2cn(Cc3ccc(C#N)cc3)nn2)cc1
54 | 80 | N#Cc1ccc(C(c2ccc(C#N)cc2)n2nccn2)cc1
55 | 16 | CCCCCCCCCCc1cn(C(c2ccc(C#N)cc2)c2ccc(C#N)cc2)nn1
56 | 4.7 | CCCc1cn(C(c2ccc(C#N)cc2)c2ccc(C#N)cc2)nn1
57 | 7.98 | c1ccc(Cn2cc(C3CCCCC3)nn2)cc1
58 | 5.07 | CCCCCCc1cn(C(c2ccc(C#N)cc2)c2ccc(C#N)cc2)nn1
59 | 31.3 | c1ccc(OCc2cn(C(c3ccccc3)c3ccccc3)nn2)cc1
60 | 12.9 | c1ccc(-c2cn(C(c3ccccc3)c3ccccc3)nn2)cc1
61 | 9.16 | N#Cc1ccc(Cn2cc(COc3ccc(C#N)cc3)nn2)cc1
62 | 12.2 | N#Cc1ccc(Cn2nccn2)cc1
63 | 2.78 | O=[N+]([O-])c1ccc(OCc2cn(Cc3ccccc3)nn2)cc1
64 | 17.3 | COc1ccc(OCc2cn(Cc3ccccc3)nn2)cc1

Row | SMILES | IC50 [µM]
65 | c1ccc(Cn2ccnc2)cc1 [BENZYLIMIDAZOLE] | 0.15

The compounds below were run on NCI-H295R (assay: Antiproliferative activity against human NCI-H295R cells at 10 nM after 72 hrs by Cell titer blue assay). Conditions: not given.
Assay type: functional

Row | SMILES | growth inhibition (GI)
66 | N#Cc1ccc(OCc2cn(Cc3ccccc3)nn2)cc1 | inactive

Same assay, conditions: read-out: GI

Row | SMILES | inhibition of growth at 0.01 µM [%]
67 | N#Cc1ccc(OCc2cn(C(c3ccc(C#N)cc3)c3ccc(C#N)cc3)nn2)cc1 | 99

What follows are compounds tested on NCI-H295R (assay: Antiproliferative activity against human NCI-H295R cells assessed as [3H]thymidine incorporation at 10 nM after 24 hrs by scintillation counting). Conditions: read-out: GI.
Assay type: functional

Row | SMILES | inhibition of growth at 0.01 µM [%]
68 | N#Cc1ccc(C(c2ccc(C#N)cc2)n2cncn2)cc1 [LETROZOLE] | 10

Each compound was assayed on NCI-H295R (assay: Antiproliferative activity against human NCI-H295R cells assessed as cell viability at 10 nM after 24 to 72 hrs by Cell titer blue assay). Conditions: read-out: GI.
Assay type: functional

Row | SMILES | inhibition of growth at 0.01 µM [%]
69 | N#Cc1ccc(C(c2ccc(C#N)cc2)n2ccnc2)cc1 | 40

Each compound was assayed against T1, Aromatase (assay: Ratio of letrozole IC50 to compound IC50 for aromatase). Conditions: not given.

Row | SMILES | Ratio IC50
70 | N#Cc1ccc(Cn2ccnn2)cc1 | 12.5
